Experimental findings from PMC4329189, “A SelB/EF-Tu/aIF2γ-like protein from Methanosarcina mazei in the GTP-bound form binds cysteinyl-tRNA^Cys” (Journal of Structural and Functional Genomics, 2015) are described below.

In this assay the target is T1, MM1309 (Methanosarcina mazei, UniProt Q8PXB3).
T1 construct: gene MM_1309; full length, 350 residues, N-terminal His tag from pET28c kept (tag residues visible in crystal), expressed in E. coli; SeMet-substituted protein for the GMPPNP and GDP crystals
T1 sequence (Q8PXB3 1-350): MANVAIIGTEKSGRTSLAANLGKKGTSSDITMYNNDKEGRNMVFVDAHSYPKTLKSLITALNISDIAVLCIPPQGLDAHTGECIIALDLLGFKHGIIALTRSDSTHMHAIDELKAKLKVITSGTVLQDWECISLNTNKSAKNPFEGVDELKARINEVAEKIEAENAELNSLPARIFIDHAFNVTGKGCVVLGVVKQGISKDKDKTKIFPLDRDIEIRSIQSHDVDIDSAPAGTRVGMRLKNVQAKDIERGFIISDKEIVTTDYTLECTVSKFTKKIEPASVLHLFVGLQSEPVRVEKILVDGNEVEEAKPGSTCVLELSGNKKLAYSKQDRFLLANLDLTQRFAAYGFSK
Kind of assay: isothermal titration calorimetry. It is filed as binding.
Compound `Nc1nc2c(ncn2[C@@H]2O[C@H](COP(=O)(O)OP(=O)(O)NP(=O)(O)O)[C@@H](O)[C@H]2O)c(=O)[nH]1` [GMPPNP] yielded a dissociation constant (Kd) of 222 µM. As to `Nc1nc2c(ncn2[C@@H]2O[C@H](COP(=O)(O)OP(=O)(O)O)[C@@H](O)[C@H]2O)c(=O)[nH]1` [GDP], the affinity, expressed as Kd, was 26.2 µM. To `Nc1nc2c(ncn2[C@@H]2O[C@H](COP(=O)(O)OP(=O)(O)OP(=O)(O)O)[C@@H](O)[C@H]2O)c(=O)[nH]1` [GTP] belongs 0.43 µM.
